The test system of the test is bacterial growth. As for the experimental part:
An experiment was conducted to compare a semi-continuous and continuous auxostat mixotrophic microalgae operation in an open outdoor bioreactor utilizing recycled media. The outdoor bioreactor system, protocols, and type of microalgae (Chlorella) was the same as described in Example 7. Different treatments were applied to the centrate resulting from membrane filter separation. The continuous media was treated with 14 g/L acetic acid. […] The media used for semi-continuous after each partial harvest was treated with 100% filtered ozone and stabilized by refrigeration at 4° C. After the first harvest, continuous treatment started in two of the four reactors. In the time between the continuous switch and the first partial harvest, non-recycled continuous feed media was used to maintain pH on the continuous cultures through the pH auxostat.

This note sets out measurements from patent US20190300842A1, “SYSTEMS AND METHODS FOR CONTINUOUSLY CULTURING MICROALGAE IN MIXOTROPHIC CONDITIONS” (HELIAE DEVELOPMENT, LLC, priority 2016, published 2019).

Where two headings read alike, the source gives them in different places.

Regarding `CC(=O)O` [Acetic acid, acetic acid], the “bacterial growth in centrate (quantity not named in Table 4)” value stood at 0.00 (acetic acid 5 g/L, 7 days); 0.00 (acetic acid 5 g/L, 14 days); 0.00 (acetic acid 5 g/L, 21 days); 0.00 (acetic acid 10 g/L, 7 days); 0.00 (acetic acid 10 g/L, 14 days); 0.00 (acetic acid 10 g/L, 21 days). Moreover, the “bacterial growth in centrate (quantity not named in Table 4)” value by setting is: (acetic acid 15 g/L, 7 days) 0.00; (acetic acid 15 g/L, 14 days) 0.00; (acetic acid 15 g/L, 21 days) 0.00. Moreover, the “period for which the centrate could be stabilized” value (addition of at least 5 g/L acetic acid) is given as over 21 days. For the same compound, the bacterial growth result (treatments of 5 g/L acetic acid and above, up to 21 days) was “No bacterial growth was observed”.
